Test results from patent US20230019491A1, “PYRIMIDINE TBK/IKKe INHIBITOR COMPOUNDS AND USES THEREOF” (Merck Patent GmbH, priority 2017, published 2023).
pIC50: −log10 of the molar value.

Columns and labels:
[1] = target: T1, IKKε (Homo sapiens, UniProt Q14164); assay: IKKε biochemical assay; details: 10 point 1:4 dose response, 30 uM top concentration, 90 min at 25° C., LabChip EZ Reader II; read-out: IKKε_IC50
T1 sequence (Q14164 1-716): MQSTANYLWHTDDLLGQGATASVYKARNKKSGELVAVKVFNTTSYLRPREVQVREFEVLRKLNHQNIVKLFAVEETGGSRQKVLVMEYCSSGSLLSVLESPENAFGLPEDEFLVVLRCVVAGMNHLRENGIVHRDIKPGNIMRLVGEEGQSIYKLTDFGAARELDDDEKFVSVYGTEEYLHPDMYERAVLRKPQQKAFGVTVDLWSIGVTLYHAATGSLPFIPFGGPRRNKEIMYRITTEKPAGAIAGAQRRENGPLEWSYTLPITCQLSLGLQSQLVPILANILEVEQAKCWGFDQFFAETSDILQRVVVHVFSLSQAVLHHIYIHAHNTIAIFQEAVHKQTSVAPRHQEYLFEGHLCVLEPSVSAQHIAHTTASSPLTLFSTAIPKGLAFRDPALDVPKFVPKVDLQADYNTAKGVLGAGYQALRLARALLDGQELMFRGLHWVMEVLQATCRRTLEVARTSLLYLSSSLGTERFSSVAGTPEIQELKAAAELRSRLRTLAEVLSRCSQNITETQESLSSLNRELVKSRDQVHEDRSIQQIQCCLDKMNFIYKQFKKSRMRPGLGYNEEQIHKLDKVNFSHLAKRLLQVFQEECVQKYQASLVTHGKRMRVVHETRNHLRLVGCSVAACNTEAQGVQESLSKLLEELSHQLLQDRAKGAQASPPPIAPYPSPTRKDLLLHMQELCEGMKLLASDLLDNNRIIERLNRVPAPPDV
How it was run: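 Mobility-shift LabChip read-out followed a 90 min, 25° C. reaction of IKKε with substrate and test compound, with DMSO held at 1% final. Reactions were ended with stop buffer. Wells with 10 uM final staurosporine defined complete inhibition, and DMSO-only wells the uninhibited level.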

[2] = target: T2, TBK1 (Homo sapiens, UniProt Q9UHD2); assay: TBK biochemical assay; details: 10 point 1:4 dose response, 30 uM top concentration, 90 min at 25° C., LabChip EZ Reader II; read-out: TBK1_IC50
T2 sequence (Q9UHD2 1-729): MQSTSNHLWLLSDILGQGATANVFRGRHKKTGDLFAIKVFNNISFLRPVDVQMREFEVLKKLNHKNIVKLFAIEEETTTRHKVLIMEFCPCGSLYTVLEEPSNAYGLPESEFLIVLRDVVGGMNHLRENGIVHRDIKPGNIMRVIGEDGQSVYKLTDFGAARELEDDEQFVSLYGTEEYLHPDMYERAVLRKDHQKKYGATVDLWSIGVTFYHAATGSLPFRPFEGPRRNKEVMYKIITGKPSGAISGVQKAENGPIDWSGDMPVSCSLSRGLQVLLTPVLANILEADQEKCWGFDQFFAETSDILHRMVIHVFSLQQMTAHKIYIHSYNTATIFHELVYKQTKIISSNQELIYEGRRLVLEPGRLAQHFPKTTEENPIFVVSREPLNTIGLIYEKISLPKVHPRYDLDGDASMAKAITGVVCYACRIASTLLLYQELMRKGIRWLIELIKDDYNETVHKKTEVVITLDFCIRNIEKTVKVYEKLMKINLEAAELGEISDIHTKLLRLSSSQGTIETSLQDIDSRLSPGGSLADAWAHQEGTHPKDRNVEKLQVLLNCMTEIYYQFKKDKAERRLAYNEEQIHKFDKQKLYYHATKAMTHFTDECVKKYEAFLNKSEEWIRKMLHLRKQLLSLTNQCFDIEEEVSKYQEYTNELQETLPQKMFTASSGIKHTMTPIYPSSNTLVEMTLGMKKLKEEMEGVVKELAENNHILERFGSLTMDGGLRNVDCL
How it was run: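 Read-out was a Caliper LabChip mobility-shift assay, run after a 90-min, 25 °C reaction of TBK1 with substrate and compounds, quenched with stop buffer. Control wells received staurosporine at 10 uM final.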

In the case of `COc1nc(Nc2nccc(-c3ccc(OC4CCN(C(=O)[C@@H](C)O)CC4(F)F)c(C#N)c3)n2)ccc1N1CCN(C)CC1` (stereo partly drawn) [Example 104, 2-[3,3-Difluoro-1-((R)-2-hydroxy-propionyl)-piperidin-4-yloxy]-5-{2-[6-methoxy-5-(4-methyl-piperazin-1-yl)-pyridin-2-ylamino]-pyrimidin-4-yl}-benzonitrile], the pIC50 [1] was > 7.00 and the pIC50 [2] was > 7.00.
With `COc1nc(Nc2ncc(F)c(-c3ccc(OC4CCN(C(=O)[C@H](C)O)CC4(F)F)c(C#N)c3)n2)ccc1N1CCN(C2COC2)CC1` (stereo partly drawn) [Example 287, 2-([3,3-difluoro-1-[(2S)-2-hydroxypropanoyl]piperidin-4-yl]oxy)-5-[5-fluoro-2-([6-methoxy-5-[4-(oxetan-3-yl)piperazin-1-yl]pyridin-2-yl]amino)pyrimidin-4-yl]benzonitrile] the pIC50 [1] was > 7.00 and the pIC50 [2] was > 7.00.
`Cc1nc(C(=O)N2CCC(Oc3ccc(-c4ccnc(Nc5ccc(N6CCN(C7COC7)CC6)cc5)n4)cc3C#N)CC2)n[nH]1` [Example 273, 2-[[1-(5-methyl-1H-1,2,4-triazole-3-carbonyl)piperidin-4-yl]oxy]-5-[2-([4-[4-(oxetan-3-yl)piperazin-1-yl]phenyl]amino)pyrimidin-4-yl]benzonitrile] was tested, and the pIC50 [1] was > 7.00 and the pIC50 [2] was > 7.00.
In the case of `COc1cc(Nc2nccc(-c3ccc(OC4CCN(C(=O)[C@@H](C)O)CC4)c(C#N)c3)n2)ncc1N1CCN(C2COC2)CC1` [Example 319, 2-([1-[(2R)-2-hydroxypropanoyl]piperidin-4-yl]oxy)-5-[2-([4-methoxy-5-[4-(oxetan-3-yl)piperazin-1-yl]pyridin-2-yl]amino)pyrimidin-4-yl]benzonitrile], the pIC50 [1] was 6.00 to 7.00 and the pIC50 [2] was 5.30 to 6.00.
In the case of `COc1nc(Nc2nccc(-c3ccc(OC4CCN(C(=O)[C@H](C)O)CC4(F)F)c(C#N)c3)n2)ccc1N1CCN(C2COC2)[C@H](C)C1` (stereo partly drawn) [Example 128, 2-[3,3-Difluoro-1-((S)-2-hydroxy-propionyl)-piperidin-4-yloxy]-5-{2-[6-methoxy-5-((R)-3-methyl-4-oxetan-3-yl-piperazin-1-yl)-pyridin-2-ylamino]-pyrimidin-4-yl}-benzonitrile], the pIC50 [1] was > 7.00 and the pIC50 [2] was > 7.00.
In the case of `CN(C)C(=O)c1ccc(Nc2nccc(-c3ccc(OC4CCOCC4)c(C#N)n3)n2)cn1` [Example 28, 5-([4-[6-cyano-5-(oxan-4-yloxy)pyridin-2-yl]pyrimidin-2-yl]amino)-N,N-dimethylpyridine-2-carboxamide], the pIC50 [1] was > 7.00 and the pIC50 [2] was > 7.00.
For `COc1nc(Nc2nccc(-c3ccc(O[C@H]4CCN(C(=O)[C@H](C)O)C[C@H]4F)c(C#N)c3)n2)ccc1N1CCN(C2COC2)CC1` [Example 116, 2-[(3R,4S)-3-Fluoro-1-((S)-2-hydroxy-propionyl)-piperidin-4-yloxy]-5-{2-[6-methoxy-5-(4-oxetan-3-yl-piperazin-1-yl)-pyridin-2-ylamino]-pyrimidin-4-yl}-benzonitrile], the pIC50 [1] was > 7.00 and the pIC50 [2] was > 7.00.
In the case of `COc1nc(Nc2nccc(-c3ccc(OC4CCN(C)C4)c(C#N)c3)n2)ccc1N1CCN(C)CC1` (centres unmarked) [Example 87, 5-(2-[[6-methoxy-5-(4-methylpiperazin-1-yl)pyridin-2-yl]amino]pyrimidin-4-yl)-2-[(1-methylpyrrolidin-3-yl)oxy]benzonitrile], the pIC50 [1] was > 7.00 and the pIC50 [2] was > 7.00.
With `N#Cc1cc(-c2ccnc(Nc3ccc(N4CCN(C5COC5)CC4)cc3)n2)ccc1OC1CNC1` [Example 171, 2-(azetidin-3-yloxy)-5-[2-([4-[4-(oxetan-3-yl)piperazin-1-yl]phenyl]amino)pyrimidin-4-yl]benzonitrile] the pIC50 [1] was > 7.00 and the pIC50 [2] was > 7.00.
In the case of `COc1nc(Nc2nccc(-c3ccc(N4CCC5(CC4)CN(C(=O)[C@H](C)O)C5)c(C#N)c3)n2)ccc1N1CCN(C2COC2)CC1` [Example 316, 2-[2-((S)-2-Hydroxy-propionyl)-2,7-diaza-spiro[3.5]non-7-yl]-5-{2-[6-methoxy-5-(4-oxetan-3-yl-piperazin-1-yl)-pyridin-2-ylamino]-pyrimidin-4-yl}-benzonitrile], the pIC50 [1] was > 7.00 and the pIC50 [2] was > 7.00.
